Reference: US10131652B2, “Pyrimidinyloxy benzene derivatives as herbicides” (E. I. DU PONT DE NEMOURS AND COMPANY, priority 2014, dated 2018)
Like-named read-outs stand apart in the source and are kept apart here.

Columns and labels:
Format in all cases: in vivo
[1] = tested on: barnyardgrass (Echinochloa crus-galli); assay: Test C flooded paddy test plant response; conditions: Echinochloa crus-galli; Flood, 250 g ai/ha; scale of 0 to 100 where 0 is no effect and 100 is complete control; 13 to 15 days; read-out: Barnyardgrass plant response rating
In short: (§1)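 Greenhouse paddy assay, 13–15 days. Treatment into 3 cm floodwater over 2-leaf plants; visual 0–100 rating against controls.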

[2] = tested on: ducksalad (Heteranthera limosa); assay: Test C flooded paddy test plant response; conditions: Heteranthera limosa; Flood, 250 g ai/ha; scale of 0 to 100 where 0 is no effect and 100 is complete control; 13 to 15 days; read-out: Ducksalad plant response rating
In short: as §1

rice (Oryza sativa) = assay: Test C flooded paddy test plant response; conditions: Oryza sativa; Flood, 250 g ai/ha; scale of 0 to 100 where 0 is no effect and 100 is complete control; 13 to 15 days; read-out: Rice plant response rating
In short: as §1

[3] = tested on: small-flower umbrella sedge (Cyperus difformis); assay: Test C flooded paddy test plant response; conditions: Cyperus difformis; Flood, 250 g ai/ha; scale of 0 to 100 where 0 is no effect and 100 is complete control; 13 to 15 days; read-out: Sedge, Umbrella plant response rating
In short: as §1

[4] = tested on: barnyardgrass (Echinochloa crus-galli); assay: Test D pre-/postemergence plant response; conditions: Echinochloa crus-galli; for pest or weed control at 31 g/ha: 31 g ai/ha, scale 0 to 100 (0 no effect, 100 complete control); for pest or weed control at 62 g/ha: 62 g ai/ha; for pest or weed control at 125 g/ha: 125 g ai/ha; for pest or weed control at 250 g/ha: 250 g ai/ha
In short: (§2)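 Sown seed (loam/sand soil) treated preemergence; emerged plants, 1- to 4-leaf stage and 2 to 18 cm, treated postemergence in peat/vermiculite medium. Greenhouse incubation 13–15 d. Endpoint: visual 0–100 rating versus untreated.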

[5] = tested on: blackgrass (Alopecurus myosuroides); assay: Test D pre-/postemergence plant response; conditions: Alopecurus myosuroides; for pest or weed control at 31 g/ha: 31 g ai/ha; for pest or weed control at 62 g/ha: 62 g ai/ha; for pest or weed control at 125 g/ha: 125 g ai/ha; for pest or weed control at 250 g/ha: 250 g ai/ha
In short: as §2

[6] = tested on: giant foxtail (Setaria faberii); assay: Test D pre-/postemergence plant response; conditions: Setaria faberi; for pest or weed control at 31 g/ha: 31 g ai/ha; for pest or weed control at 62 g/ha: 62 g ai/ha; for pest or weed control at 125 g/ha: 125 g ai/ha; for pest or weed control at 250 g/ha: 250 g ai/ha
In short: as §2

[7] = tested on: johnsongrass (Sorghum halepense); assay: Test D pre-/postemergence plant response; conditions: Sorghum halepense; for pest or weed control at 31 g/ha: 31 g ai/ha; for pest or weed control at 62 g/ha: 62 g ai/ha; for pest or weed control at 125 g/ha: 125 g ai/ha; for pest or weed control at 250 g/ha: 250 g ai/ha
In short: as §2

[8] = tested on: oilseed rape (Brassica napus); assay: Test D pre-/postemergence plant response; conditions: Brassica napus; for plant injury at 31 g/ha: 31 g ai/ha; for plant injury at 62 g/ha: 62 g ai/ha; for plant injury at 125 g/ha: 125 g ai/ha; for plant injury at 250 g/ha: 250 g ai/ha
In short: as §2

[9] = tested on: pigweed (Amaranthus retroflexus); assay: Test D pre-/postemergence plant response; conditions: Amaranthus retroflexus; for pest or weed control at 31 g/ha: 31 g ai/ha; for pest or weed control at 62 g/ha: 62 g ai/ha; for pest or weed control at 125 g/ha: 125 g ai/ha; for pest or weed control at 250 g/ha: 250 g ai/ha
In short: as §2

[10] = tested on: velvetleaf (Abutilon theophrasti); assay: Test D pre-/postemergence plant response; conditions: Abutilon theophrasti; for pest or weed control at 31 g/ha: 31 g ai/ha; for pest or weed control at 62 g/ha: 62 g ai/ha; for pest or weed control at 125 g/ha: 125 g ai/ha; for pest or weed control at 250 g/ha: 250 g ai/ha
In short: as §2

[11] = post-emergence, Postemergence, scale 0 to 100, 0 no effect, 100 complete control, read-out: Plant response rating, Barnyardgrass
[12] = pre-emergence, Preemergence, read-out: Plant response rating (scale 0 to 100), Barnyardgrass
[13] = post-emergence, Postemergence, scale 0 to 100, 0 no effect, 100 complete control, read-out: Plant response rating, Blackgrass
[14] = pre-emergence, Preemergence, read-out: Plant response rating (scale 0 to 100), Blackgrass
[15] = pre-emergence, Preemergence, scale 0 to 100 (0 no effect, 100 complete control), read-out: Plant response rating, Blackgrass
[16] = post-emergence, Postemergence, scale 0 to 100, 0 no effect, 100 complete control, read-out: Plant response rating, Foxtail, Giant
[17] = pre-emergence, Preemergence, read-out: Plant response rating (scale 0 to 100), Foxtail, Giant
[18] = pre-emergence, Preemergence, scale 0 to 100 (0 no effect, 100 complete control), read-out: Plant response rating, Foxtail, Giant
[19] = post-emergence, Postemergence, scale 0 to 100, 0 no effect, 100 complete control, read-out: Plant response rating, Johnsongrass
[20] = pre-emergence, Preemergence, read-out: Plant response rating (scale 0 to 100), Johnsongrass
[21] = pre-emergence, Preemergence, scale 0 to 100 (0 no effect, 100 complete control), read-out: Plant response rating, Johnsongrass
[22] = post-emergence, Postemergence, scale 0 to 100, 0 no effect, 100 complete control, read-out: Plant response rating, Oilseed Rape
[23] = pre-emergence, Preemergence, read-out: Plant response rating (scale 0 to 100), Oilseed Rape
[24] = pre-emergence, Preemergence, scale 0 to 100 (0 no effect, 100 complete control), read-out: Plant response rating, Oilseed Rape
[25] = post-emergence, Postemergence, scale 0 to 100, 0 no effect, 100 complete control, read-out: Plant response rating, Pigweed
[26] = pre-emergence, Preemergence, read-out: Plant response rating (scale 0 to 100), Pigweed
[27] = pre-emergence, Preemergence, scale 0 to 100 (0 no effect, 100 complete control), read-out: Plant response rating, Pigweed
[28] = post-emergence, Postemergence, scale 0 to 100, 0 no effect, 100 complete control, read-out: Plant response rating, Velvetleaf
[29] = pre-emergence, Preemergence, read-out: Plant response rating (scale 0 to 100), Velvetleaf
[30] = pre-emergence, Preemergence, scale 0 to 100 (0 no effect, 100 complete control), read-out: Plant response rating, Velvetleaf

FC(F)c1cc(-c2ccccc2Oc2ncc(Br)cn2)no1 [Compound 62, 5-bromo-2-[2-[5-(difluoromethyl)-3-isoxazolyl]phenoxy]pyrimidine]
pest or weed control at 250 g/ha [1]: 35% | pest or weed control at 250 g/ha [2]: 100% | plant injury at 250 g/ha (rice (Oryza sativa)): 40% | pest or weed control at 250 g/ha [3]: 90% | pest or weed control at 31 g/ha ([4]; post-emergence, Postemergence, read-out: Barnyardgrass plant response rating): 50% | pest or weed control at 62 g/ha [4, 11]: 35% | pest or weed control at 125 g/ha [4, 11]: 30% | pest or weed control at 250 g/ha [4, 11]: 95% | pest or weed control at 62 g/ha [4, 12]: 98% | pest or weed control at 125 g/ha [4, 12]: 100% | pest or weed control at 250 g/ha [4, 12]: 100% | pest or weed control at 31 g/ha ([4]; pre-emergence, Preemergence, read-out: Plant response rating, Barnyardgrass): 50% | pest or weed control at 31 g/ha ([5]; post-emergence, Postemergence, scale 0 to 100 (0 no effect, 100 complete control), read-out: Blackgrass plant response rating): 20% | pest or weed control at 62 g/ha [5, 13]: 25% | pest or weed control at 125 g/ha [5, 13]: 40% | pest or weed control at 250 g/ha [5, 13]: 60% | pest or weed control at 125 g/ha [5, 14]: 90% | pest or weed control at 250 g/ha [5, 14]: 90% | pest or weed control at 31 g/ha [5, 15]: 5% | pest or weed control at 62 g/ha [5, 15]: 90% | pest or weed control at 31 g/ha ([6]; post-emergence, Postemergence, scale 0 to 100 (0 no effect, 100 complete control), read-out: Foxtail, Giant plant response rating): 25% | pest or weed control at 62 g/ha [6, 16]: 25% | pest or weed control at 125 g/ha [6, 16]: 20% | pest or weed control at 250 g/ha [6, 16]: 55% | pest or weed control at 125 g/ha [6, 17]: 100% | pest or weed control at 250 g/ha [6, 17]: 100% | pest or weed control at 31 g/ha [6, 18]: 95% | pest or weed control at 62 g/ha [6, 18]: 100% | pest or weed control at 31 g/ha ([7]; post-emergence, Postemergence, scale 0 to 100 (0 no effect, 100 complete control), read-out: Johnsongrass plant response rating): 25% | pest or weed control at 62 g/ha [7, 19]: 25% | pest or weed control at 125 g/ha [7, 19]: 75% | pest or weed control at 250 g/ha [7, 19]: 85% | pest or weed control at 125 g/ha [7, 20]: 90% | pest or weed control at 250 g/ha [7, 20]: 98% | pest or weed control at 31 g/ha [7, 21]: 30% | pest or weed control at 62 g/ha [7, 21]: 75% | plant injury at 31 g/ha ([8]; post-emergence, Postemergence, scale 0 to 100 (0 no effect, 100 complete control), read-out: Oilseed Rape plant response rating): 80% | plant injury at 62 g/ha [8, 22]: 90% | plant injury at 125 g/ha [8, 22]: 98% | plant injury at 250 g/ha [8, 22]: 100% | plant injury at 125 g/ha [8, 23]: 100% | plant injury at 250 g/ha [8, 23]: 100% | plant injury at 31 g/ha [8, 24]: 100% | plant injury at 62 g/ha [8, 24]: 98% | pest or weed control at 31 g/ha ([9]; post-emergence, Postemergence, scale 0 to 100 (0 no effect, 100 complete control), read-out: Pigweed plant response rating): 98% | pest or weed control at 62 g/ha [9, 25]: 100% | pest or weed control at 125 g/ha [9, 25]: 100% | pest or weed control at 250 g/ha [9, 25]: 100% | pest or weed control at 125 g/ha [9, 26]: 100% | pest or weed control at 250 g/ha [9, 26]: 100% | pest or weed control at 31 g/ha [9, 27]: 100% | pest or weed control at 62 g/ha [9, 27]: 100% | pest or weed control at 31 g/ha ([10]; post-emergence, Postemergence, scale 0 to 100 (0 no effect, 100 complete control), read-out: Velvetleaf plant response rating): 60% | pest or weed control at 62 g/ha [10, 28]: 70% | pest or weed control at 125 g/ha [10, 28]: 75% | pest or weed control at 250 g/ha [10, 28]: 85% | pest or weed control at 125 g/ha [10, 29]: 100% | pest or weed control at 250 g/ha [10, 29]: 100% | pest or weed control at 31 g/ha [10, 30]: 90% | pest or weed control at 62 g/ha [10, 30]: 100%
